# In US6737383B1, “Herbicidal oxadiazolidines” (priority 1999, dated 2004):
# How the values were obtained:
# bedstraw = assay: Test B pre/postemergence bedstraw; type: in vivo, Galium aparine
# From the text: (§1) Seeds of bedstraw (Galium aparine), blackgrass (Alopecurus myosuroides), surinam grass (Brachiaria decumbens), cocklebur (Xanthium strumarium), corn (Zea mays), crabgrass (Digitaria sanguinalis), giant foxtail (Setaria faberii), morningglory (Ipomoea hederacea), pigweed (Amaranthus retroflexus), rape (Brassica napus), soybean (Glycine max), sugar beet (Beta vulgaris), velvetleaf (Abutilon theophrasti), wheat (Triticum aestivum), wild oat (Avena fatua) and purple nutsedge (Cyperus rotundus) tubers were planted and treated preemnergence with test chemicals formulated in a non-phytotoxic solvent mixture which included a surfactant.
# (§2) At the same time, these crop and weed species were also treated with postemergence applications of test chemicals formulated in the same manner. Plants ranged in height from 2 to 18 cm (1- to 4-leaf stage) for postemergence treatments. Plant species in the flood test consisted of rice (Oryza sativa), smallflower flatsedge (Cyperus difformis), duck salad (Heteranthera limosa) and bamyardgrass (Echinochloa crus-galli) grown to the 2-leaf stage for testing. Treated plants and controls were maintained in a greenhouse for twelve to sixteen days, after which all species were compared to controls and visually evaluated. Plant response ratings, summarized in Table B, are based on a scale of 0 to 10 where 0 is no effect and 10 is complete control. A dash (−) response means no test result.
# blackgrass = assay: Test B pre/postemergence blackgrass; type: in vivo, Alopecurus myosuroides
# From the text: as §1, §2
# surinam grass = assay: Test B pre/postemergence surinam grass; type: in vivo, Brachiaria decumbens
# From the text: as §1, §2
# cocklebur = assay: Test B pre/postemergence cocklebur; type: in vivo, Xanthium strumarium
# From the text: as §1, §2
# corn = assay: Test B pre/postemergence corn; type: in vivo, Zea mays
# From the text: as §1, §2
# crabgrass = assay: Test B pre/postemergence crabgrass; type: in vivo, Digitaria sanguinalis
# From the text: as §1, §2
# giant foxtail = assay: Test B pre/postemergence giant foxtail; type: in vivo, Setaria faberii
# From the text: as §1, §2
# morningglory = assay: Test B pre/postemergence morningglory; type: in vivo, Ipomoea hederacea
# From the text: as §1, §2
# pigweed = assay: Test B pre/postemergence pigweed; type: in vivo, Amaranthus retroflexus
# From the text: as §1, §2
# rape = assay: Test B pre/postemergence rape; type: in vivo, Brassica napus
# From the text: as §1, §2
# soybean = assay: Test B pre/postemergence soybean; type: in vivo, Glycine max
# From the text: as §1, §2
# sugar beet = assay: Test B pre/postemergence sugar beet; type: in vivo, Beta vulgaris
# From the text: as §1, §2
# velvetleaf = assay: Test B pre/postemergence velvetleaf; type: in vivo, Abutilon theophrasti
# From the text: as §1, §2
# wheat = assay: Test B pre/postemergence wheat; type: in vivo, Triticum aestivum
# From the text: as §1, §2
# wild oat = assay: Test B pre/postemergence wild oat; type: in vivo, Avena fatua
# From the text: as §1, §2
# purple nutsedge = assay: Test B pre/postemergence purple nutsedge; type: in vivo, Cyperus rotundus
# From the text: as §1, §2
# [1] = Preemergence, Rate 62 g/ha, scale of 0 to 10 where 0 is no effect and 10 is complete control
# [2] = Preemergence, Rate 500 g/ha, scale of 0 to 10 where 0 is no effect and 10 is complete control
# [3] = Rate 62 g/ha, Postemergence, scale of 0 to 10 where 0 is no effect and 10 is complete control
# [4] = Rate 125 g/ha, Postemergence, scale 0 to 10
# [5] = Rate 125 g/ha, Preemergence, scale of 0 to 10 where 0 is no effect and 10 is complete control
# [6] = Preemergence, Rate 250 g/ha, scale of 0 to 10 where 0 is no effect and 10 is complete control
# [7] = Rate 500 g/ha, Postemergence, scale 0 to 10, 0 no effect, 10 complete control
smiles,measurement,setting,value
CC(C)N(C(=O)n1oc(=O)n(C(C)C(=O)c2ccccc2)c1=O)c1ccc(F)cc1 (stereo not shown) [Compound 260],Bedstraw plant response rating,bedstraw; [1],0
same,"Plant response rating, Bedstraw",bedstraw; [2],5
same,Bedstraw plant response rating,bedstraw; [3],6
same,Bedstraw plant response rating,bedstraw; [4],7
same,Bedstraw plant response rating,bedstraw; [5],0
same,Blackgrass plant response rating,blackgrass; [1],0
same,Blackgrass plant response rating,blackgrass; [6],2
same,"Plant response rating, Blackgrass",blackgrass; [2],3
same,Blackgrass plant response rating,blackgrass; [3],0
same,Blackgrass plant response rating,blackgrass; [4],0
same,Blackgrass plant response rating,blackgrass; [5],0
same,"Plant response rating (0 to 10; 0 is no effect, 10 is complete control), Blackgrass","blackgrass; Rate 250 g/ha, Postemergence",0
same,Blackgrass plant response rating,blackgrass; [7],0
same,B. signalgrass plant response rating,surinam grass; [1],0
same,B. signalgrass plant response rating,surinam grass; [6],0
same,"Plant response rating, B. signalgrass",surinam grass; [2],3
same,B. signalgrass plant response rating,surinam grass; [3],0
same,B. signalgrass plant response rating,"surinam grass; Rate 125 g/ha, Postemergence, scale 0 (no effect) to 10 (complete control)",0
same,B. signalgrass plant response rating,surinam grass; [5],0
same,"Plant response rating (0 to 10; 0 is no effect, 10 is complete control), B. signalgrass","surinam grass; Rate 250 g/ha, Postemergence",0
same,B. signalgrass plant response rating,surinam grass; [7],0
same,Cocklebur plant response rating,cocklebur; [1],0
same,Cocklebur plant response rating,cocklebur; [6],0
same,"Plant response rating, Cocklebur",cocklebur; [2],0
same,Cocklebur plant response rating,cocklebur; [3],0
same,Cocklebur plant response rating,cocklebur; [4],0
same,Cocklebur plant response rating,cocklebur; [5],0
same,"Plant response rating (0 to 10; 0 is no effect, 10 is complete control), Cocklebur","cocklebur; Rate 250 g/ha, Postemergence",0
same,Cocklebur plant response rating,cocklebur; [7],0
same,Corn plant response rating,corn; [1],0
same,Corn plant response rating,corn; [6],0
same,"Plant response rating, Corn",corn; [2],0
same,Corn plant response rating,corn; [3],0
same,Corn plant response rating,corn; [4],0
same,Corn plant response rating,corn; [5],0
same,"Plant response rating (0 to 10; 0 is no effect, 10 is complete control), Corn","corn; Rate 250 g/ha, Postemergence",0
same,Corn plant response rating,corn; [7],0
same,Crabgrass plant response rating,crabgrass; [1],0
same,Crabgrass plant response rating,crabgrass; [6],6
same,"Plant response rating, Crabgrass",crabgrass; [2],9
same,Crabgrass plant response rating,crabgrass; [5],2
same,"Plant response rating (0 to 10; 0 is no effect, 10 is complete control), Crabgrass","crabgrass; Rate 250 g/ha, Postemergence",0
same,Crabgrass plant response rating,crabgrass; [7],0
same,Giant foxtail plant response rating,giant foxtail; [1],3
same,Giant foxtail plant response rating,giant foxtail; [6],8
same,"Plant response rating, Giant foxtail",giant foxtail; [2],10
same,Giant foxtail plant response rating,giant foxtail; [5],7
same,"Plant response rating (0 to 10; 0 is no effect, 10 is complete control), Giant foxtail","giant foxtail; Rate 250 g/ha, Postemergence",0
same,Giant foxtail plant response rating,giant foxtail; [7],0
same,Morningglory plant response rating,morningglory; [1],0
same,Morningglory plant response rating,morningglory; [6],0
same,"Plant response rating, Morningglory",morningglory; [2],0
same,Morningglory plant response rating,morningglory; [5],0
same,"Plant response rating (0 to 10; 0 is no effect, 10 is complete control), Morningglory","morningglory; Rate 250 g/ha, Postemergence",3
same,Morningglory plant response rating,morningglory; [7],4
same,Redroot pigweed plant response rating,pigweed; [1],0
same,Redroot pigweed plant response rating,pigweed; [6],4
same,"Plant response rating, Redroot pigweed",pigweed; [2],4
same,Redroot pigweed plant response rating,pigweed; [5],0
same,"Plant response rating (0 to 10; 0 is no effect, 10 is complete control), Redroot pigweed","pigweed; Rate 250 g/ha, Postemergence",3
same,Redroot pigweed plant response rating,pigweed; [7],6
same,Rape plant response rating,rape; [1],0
same,Rape plant response rating,rape; [6],0
same,"Plant response rating, Rape",rape; [2],0
same,Rape plant response rating,rape; [5],0
same,"Plant response rating (0 to 10; 0 is no effect, 10 is complete control), Rape","rape; Rate 250 g/ha, Postemergence",0
same,Rape plant response rating,rape; [7],0
same,Soybean plant response rating,soybean; [1],0
same,Soybean plant response rating,soybean; [6],0
same,"Plant response rating, Soybean",soybean; [2],0
same,Soybean plant response rating,soybean; [5],0
same,Soybean plant response rating,soybean; [7],1
same,Sugarbeets plant response rating,sugar beet; [1],0
same,Sugarbeets plant response rating,sugar beet; [6],0
same,"Plant response rating, Sugarbeets",sugar beet; [2],0
same,Sugarbeets plant response rating,sugar beet; [5],0
same,Sugarbeets plant response rating,sugar beet; [7],3
same,Velvetleaf plant response rating,velvetleaf; [1],0
same,Velvetleaf plant response rating,velvetleaf; [6],0
same,"Plant response rating, Velvetleaf",velvetleaf; [2],0
same,Velvetleaf plant response rating,velvetleaf; [5],0
same,Velvetleaf plant response rating,velvetleaf; [7],1
same,Wheat plant response rating,wheat; [1],0
same,Wheat plant response rating,wheat; [6],0
same,"Plant response rating, Wheat",wheat; [2],0
same,Wheat plant response rating,wheat; [5],0
same,Wheat plant response rating,wheat; [7],0
same,Wild oats plant response rating,wild oat; [1],0
same,Wild oats plant response rating,wild oat; [6],0
same,"Plant response rating, Wild oats",wild oat; [2],0
same,Wild oats plant response rating,wild oat; [5],0
same,Wild oats plant response rating,wild oat; [7],0
same,Nutsedge plant response rating,purple nutsedge; [1],0
same,Nutsedge plant response rating,purple nutsedge; [6],0
same,Nutsedge plant response rating,purple nutsedge; [5],0
same,"Plant response rating (0 to 10; 0 is no effect, 10 is complete control), Nutsedge","purple nutsedge; Rate 250 g/ha, Postemergence",0
same,Nutsedge plant response rating,purple nutsedge; [7],0
